We go through 2 compounds from article PMC6007898, “Methyl dihydrojasmonate and lilial are the constituents with an "off-label" insect repellence in perfumes” (PLoS ONE, 2018).

This assay concerns the target T1, CquiOR136/CquiOrco (Culex quinquefasciatus, UniProt A0A0A0QKD4).
T1 construct: odorant receptor co-expressed with its co-receptor Orco in Xenopus oocytes; with Odorant receptor coreceptor
T1 sequence (A0A0A0QKD4 1-436): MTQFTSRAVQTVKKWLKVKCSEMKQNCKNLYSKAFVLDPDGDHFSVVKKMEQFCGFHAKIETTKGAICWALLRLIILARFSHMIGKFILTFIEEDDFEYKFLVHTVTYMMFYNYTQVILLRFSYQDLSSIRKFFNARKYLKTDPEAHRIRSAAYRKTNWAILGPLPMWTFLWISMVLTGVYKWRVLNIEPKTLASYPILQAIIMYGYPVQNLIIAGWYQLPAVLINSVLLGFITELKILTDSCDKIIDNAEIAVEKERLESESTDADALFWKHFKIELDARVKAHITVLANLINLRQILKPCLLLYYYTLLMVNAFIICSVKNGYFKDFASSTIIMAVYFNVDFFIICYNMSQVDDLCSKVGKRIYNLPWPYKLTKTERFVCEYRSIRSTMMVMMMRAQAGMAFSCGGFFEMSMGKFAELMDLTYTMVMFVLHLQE
Briefly: two-electrode voltage clamp, Xenopus oocytes. As to conditions: holding potential -80 mV, CquiOrco co-expressed, agonist. Format: cell-based. On the procedure:
All compounds were tested at the same dose

Take `CCCCCC1C(=O)CCC1CC(=O)OC` (mixture of isomers) [MDJ, methyl 2-(3-oxo-2-pentylcyclopentyl)acetate]: the “current at 1 mM” value was “The currents elicited by methyl dihydrojasmonate were significantly higher than those elicited by lilial”.

For the compound `CC(C=O)Cc1ccc(C(C)(C)C)cc1` (centres unmarked) [lilial], the “current at 1 mM” value is reported as “both compounds were somewhat strong repellents, they activated CquiOR136 differently”.
